Experimental data from patent publication US10189836B2, “Therapeutic compounds, compositions and methods of use thereof” (Genentech, Inc., priority 2015, dated 2019).

How the values were obtained:
[1] = target: isolated recombinant JAK1 kinase domain (Homo sapiens (Human), UniProt P23458); assay: JAK1 enzyme assay (Caliper LabChip, Ki); format: biochemical; conditions: isolated recombinant JAK1 kinase domain, 1.5 nM enzyme, ATP 25 μM
[2] = target: isolated recombinant JAK2 kinase domain (Homo sapiens (Human), UniProt O60674); assay: JAK2 enzyme assay (Caliper LabChip, Ki); format: biochemical; conditions: isolated recombinant JAK2 kinase domain, 0.2 nM enzyme, ATP 25 μM
isolated recombinant JAK2 kinase domain, sequence (O60674 849-1124): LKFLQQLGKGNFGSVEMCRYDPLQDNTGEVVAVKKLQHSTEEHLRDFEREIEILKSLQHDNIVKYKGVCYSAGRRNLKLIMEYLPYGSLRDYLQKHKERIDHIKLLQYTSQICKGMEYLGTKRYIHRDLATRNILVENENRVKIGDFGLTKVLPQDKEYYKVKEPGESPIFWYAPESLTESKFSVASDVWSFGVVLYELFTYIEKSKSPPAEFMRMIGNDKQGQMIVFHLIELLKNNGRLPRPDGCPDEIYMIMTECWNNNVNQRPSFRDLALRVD

isolated recombinant JAK1 kinase domain, sequence (P23458 875-1153): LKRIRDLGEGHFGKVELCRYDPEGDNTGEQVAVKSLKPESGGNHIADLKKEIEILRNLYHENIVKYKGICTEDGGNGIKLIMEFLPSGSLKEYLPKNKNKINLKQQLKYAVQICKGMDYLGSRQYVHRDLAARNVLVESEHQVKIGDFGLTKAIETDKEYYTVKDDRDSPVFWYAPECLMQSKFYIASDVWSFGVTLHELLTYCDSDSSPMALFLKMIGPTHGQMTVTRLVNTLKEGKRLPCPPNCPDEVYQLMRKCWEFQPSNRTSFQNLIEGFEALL

Structure (SMILES)	Ki [1]	Ki [2]
CN1CCN(C(=O)Cn2cc(Nc3nc4c(N5C[C@H]6CC[C@@H](C5)[C@H]6OCc5ccccc5)cccn4n3)cn2)CC1 [Example 1, 2-[4-[[8-[(1S,5R)-8-benzyloxy-3-azabicyclo[3.2.1]octan-3-yl]-[1,2,4]triazolo[1,5-a]pyridin-2-yl]amino]pyrazol-1-yl]-1-(4-methylpiperazin-1-yl)ethanone]	200 pM	600 pM
CN1CCN(C(=O)Cn2cc(Nc3nc4c(N5CC6CCC(C5)N6C(=O)N5CC(C(F)(F)F)C5)cccn4n3)cn2)CC1 [Example 2, 1-(4-methylpiperazin-1-yl)-2-[4-[[8-[8-[3-(trifluoromethyl)azetidine-1-carbonyl]-3,8-diazabicyclo[3.2.1]octan-3-yl]-[1,2,4]triazolo[1,5-a]pyridin-2-yl]amino]pyrazol-1-yl]ethanone]	500 pM	400 pM
CN1CCN(C(=O)Cn2cc(Nc3nc4c(N5CC6CCC(C5)N6C(=O)C5CSC5)cccn4n3)cn2)CC1 [Example 3, 1-(4-methylpiperazin-1-yl)-2-[4-[[8-[8-(thietane-3-carbonyl)-3,8-diazabicyclo[3.2.1]octan-3-yl]-[1,2,4]triazolo[1,5-a]pyridin-2-yl]amino]pyrazol-1-yl]ethanone]	500 pM	600 pM
CN1CCN(C(=O)Cn2cc(Nc3nc4c(N5CC6CCCC(C5)N6C(=O)CCC(F)(F)F)cccn4n3)cn2)CC1 [Example 4, 4,4,4-trifluoro-1-[3-[2-[[1-[2-(4-methylpiperazin-1-yl)-2-oxo-ethyl]pyrazol-4-yl]amino]-[1,2,4]triazolo[1,5-a]pyridin-8-yl]-3,9-diazabicyclo[3.3.1]nonan-9-yl]butan-1-one]	500 pM	800 pM
CN1CCN(C(=O)Cn2cc(Nc3nc4c(N5CC6CCC(C5)N6C(=O)CCC(F)(F)F)cccn4n3)cn2)CC1 [Example 5, 4,4,4-trifluoro-1-[3-[2-[[1-[2-(4-methylpiperazin-1-yl)-2-oxo-ethyl]pyrazol-4-yl]amino]-[1,2,4]triazolo[1,5-a]pyridin-8-yl]-3,8-diazabicyclo[3.2.1]octan-8-yl]butan-1-one]	600 pM	1200 pM
CN1CCN(C(=O)Cn2cc(Nc3nc4c(N5CC6CCC(C5)N6C(=O)[C@H]5C[C@H](C(F)(F)F)C5)cccn4n3)cn2)CC1 [Example 6, formic acid; 1-(4-methylpiperazin-1-yl)-2-[4-[[8-[8-[3-(trifluoromethyl)cyclobutanecarbonyl]-3,8-diazabicyclo[3.2.1]octan-3-yl]-[1,2,4]triazolo[1,5-a]pyridin-2-yl]amino]pyrazol-1-yl]ethanone]	700 pM	600 pM
CN1CCN(C(=O)Cn2cc(Nc3nc4c(C5=CC6CCC(C5)N6C(=O)CCC(F)(F)F)cccn4n3)cn2)CC1 (centres unmarked) [Example 13, 4,4,4-trifluoro-1-[3-[2-[[1-[2-(4-methylpiperazin-1-yl)-2-oxo-ethyl]pyrazol-4-yl]amino]-[1,2,4]triazolo[1,5-a]pyridin-8-yl]-8-azabicyclo[3.2.1]oct-3-en-8-yl]butan-1-one]	900 pM	
CN1CCN(C(=O)Cn2cc(Nc3nc4c(C5=CC6CCC(C5)N6C(=O)CCC(F)(F)F)cccn4n3)cn2)CC1 (centres unmarked) [Example 18, 4,4,4-trifluoro-1-[3-[2-[[1-[2-(4-methylpiperazin-1-yl)-2-oxo-ethyl]pyrazol-4-yl]amino]-[1,2,4]triazolo[1,5-a]pyridin-8-yl]-8-azabicyclo[3.2.1]oct-3-en-8-yl]butan-1-one]	1500 pM	
CN1CCN(C(=O)Cn2cc(Nc3nc4c(N5CC6CCC(C5)N6C(=O)C5CC6C(C5)C6(F)F)cccn4n3)cn2)CC1 (centres unmarked) [Example 57, 2-[4-[[8-[8-(6,6-difluorobicyclo[3.1.0]hexane-3-carbonyl)-3,8-diazabicyclo[3.2.1]octan-3-yl]-[1,2,4]triazolo[1,5-a]pyridin-2-yl]amino]pyrazol-1-yl]-1-(4-methylpiperazin-1-yl)ethanone]	4800 pM	
CN1CCN(C(=O)Cn2cc(Nc3nc4c(N5CC6CCC(C5)N6C(=O)c5ccccc5)cccn4n3)cn2)CC1 [Example 70, 2-[4-[[8-(8-benzoyl-3,8-diazabicyclo[3.2.1]octan-3-yl)-[1,2,4]triazolo[1,5-a]pyridin-2-yl]amino]pyrazol-1-yl]-1-(4-methylpiperazin-1-yl)ethanone]	4200 pM	
CN1CCN(C(=O)Cn2cc(Nc3nc4c(N5CC6CCC(C5)N6CCCC(F)(F)F)cccn4n3)cn2)CC1 [Example 73, 1-(4-methylpiperazin-1-yl)-2-[4-[[8-[8-(4,4,4-trifluorobutyl)-3,8-diazabicyclo[3.2.1]octan-3-yl]-[1,2,4]triazolo[1,5-a]pyridin-2-yl]amino]pyrazol-1-yl]ethanone]	8800 pM	
CN1CCN(C(=O)Cn2cc(Nc3nc4c(N5CC6COCC(C5)N6C(=O)CCC(F)(F)F)cccn4n3)cn2)CC1 [Example 130, 4,4,4-trifluoro-1-[7-[2-[[1-[2-(4-methylpiperazin-1-yl)-2-oxo-ethyl]pyrazol-4-yl]amino]-[1,2,4]triazolo[1,5-a]pyridin-8-yl]-3-oxa-7,9-diazabicyclo[3.3.1]nonan-9-yl]butan-1-one]		26600 pM
CN1CCN(C(=O)Cn2cc(Nc3nc4c(N5C[C@H]6CC[C@@H](C5)[C@H]6OCc5ccncc5)cccn4n3)cn2)CC1 [Example 144, 1-(4-methylpiperazin-1-yl)-2-[4-[[8-[rac-(1S,5R)-8-(4-pyridylmethoxy)-3 - azabicyclo[3.2.1]octan-3-yl]-[1,2,4]triazolo[1,5-a]pyridin-2-yl]amino]pyrazol-1-yl]ethanone]	800 pM	
CN1CCN(C(=O)Cn2cc(Nc3nc4c(N5C[C@H]6CC[C@@H](C5)[C@H]6NCCC(F)(F)F)cccn4n3)cn2)CC1 [Example 145, 1-(4-methylpiperazin-1-yl)-2-(4-((8-((1R,5 S,8r)-8-((3,3,3-trifluoropropyl)amino)-3-azabicyclo[3.2.1]octan-3-yl)-[1,2,4]triazolo[1,5-a]pyridin-2-yl)amino)-1H-pyrazol-1-yl)ethanone]	1300 pM	
Cc1ccc(CO[C@H]2[C@@H]3CC[C@H]2CN(c2cccn4nc(Nc5cnn(CC(=O)N6CCN(C)CC6)c5)nc24)C3)cn1 [Example 151, 1-(4-methylpiperazin-1-yl)-2-[4-[[8-[rac-(1S,5R)-8-[(6-methyl-3-pyridyl)methoxy]-3-azabicyclo[3.2.1]octan-3-yl]-[1,2,4]triazolo[1,5-a]pyridin-2-yl]amino]pyrazol-1-yl]ethanone]	600 pM	
CN1CCN(C(=O)Cn2cc(Nc3nc4c(N5CC6CCC(C5)N6C(=O)C5(C#N)CCCC5)cccn4n3)cn2)CC1 [Example 155, 1-[3-[2-[[1-[2-(4-methylpiperazin-1-yl)-2-oxo-ethyl]pyrazol-4-yl]amino]-[1,2,4]triazolo[1,5-a]pyridin-8-yl]-3,8-diazabicyclo[3.2.1]octane-8-carbonyl]cyclopentane-carbonitrile]		21000 pM
CN1CCN(C(=O)Cn2cc(Nc3nc4c(N5C[C@H]6CC[C@@H](C5)[C@@H]6OCc5ccncc5)cccn4n3)cn2)CC1 [Example 189, 1-(4-methylpiperazin-1-yl)-2-(4-((8-((1R,5 S,8s)-8-(pyridin-4-ylmethoxy)-3-azabicyclo[3.2.1]octan-3-yl)-[1,2,4]triazolo[1,5-a]pyridin-2-yl)amino)-1H-pyrazol-1-yl)ethanone]	500 pM	
